The source of these data is US11332459B2 (TEIJIN PHARMA LIMITED, priority 2017, dated 2022).

Counter-ions that a name gives are not always drawn.

This assay concerns the target T1, human TRPC6 (Homo sapiens, UniProt Q9Y210).
T1 construct: expressed in transfected cells
T1 sequence (Q9Y210 1-931): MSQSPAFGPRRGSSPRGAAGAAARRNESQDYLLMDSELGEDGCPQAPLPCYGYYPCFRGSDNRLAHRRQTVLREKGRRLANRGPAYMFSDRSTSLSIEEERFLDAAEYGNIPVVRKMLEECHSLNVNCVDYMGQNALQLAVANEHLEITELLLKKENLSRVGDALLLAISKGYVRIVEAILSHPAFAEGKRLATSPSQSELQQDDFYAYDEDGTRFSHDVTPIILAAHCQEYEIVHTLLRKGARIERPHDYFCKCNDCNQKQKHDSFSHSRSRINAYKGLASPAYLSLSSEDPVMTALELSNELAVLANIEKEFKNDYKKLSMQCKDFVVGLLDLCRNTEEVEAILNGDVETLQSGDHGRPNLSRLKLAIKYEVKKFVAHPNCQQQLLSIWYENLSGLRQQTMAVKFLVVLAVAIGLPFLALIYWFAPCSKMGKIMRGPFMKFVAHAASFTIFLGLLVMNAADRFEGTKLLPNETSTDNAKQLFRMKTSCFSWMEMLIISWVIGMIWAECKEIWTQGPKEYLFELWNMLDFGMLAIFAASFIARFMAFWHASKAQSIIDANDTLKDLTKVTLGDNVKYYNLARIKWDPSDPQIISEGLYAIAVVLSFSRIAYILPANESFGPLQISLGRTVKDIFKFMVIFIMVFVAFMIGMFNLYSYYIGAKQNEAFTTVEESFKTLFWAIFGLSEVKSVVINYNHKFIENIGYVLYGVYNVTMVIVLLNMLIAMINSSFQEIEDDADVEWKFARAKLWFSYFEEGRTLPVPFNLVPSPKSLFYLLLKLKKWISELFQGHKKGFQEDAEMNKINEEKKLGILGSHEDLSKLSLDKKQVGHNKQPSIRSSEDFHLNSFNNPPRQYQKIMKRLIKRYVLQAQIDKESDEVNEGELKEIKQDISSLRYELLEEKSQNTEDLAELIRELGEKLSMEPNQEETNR
Nature of the assay: TRPC6 calcium flux assay (FLIPR, OAG-stimulated calcium influx). In kind it is cell-based. The conditions noted are these: HEK293 cells stably transfected with human TRPC6, read-out: hTRPC6 Potency. A digest of the protocol:
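HEK293 cells stably expressing human TRPC6, loaded with calcium dye 90–120 min at RT, then given compound for 25 min before OAG (50 uM final, 0.5% DMSO) in HEPES buffer pH 7.2 with 2 mM CaCl2. Background-subtracted FLIPR peak over 180 s normalized to OAG vs buffer; IC50 from dose plot.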
(A change in cytosolic calcium serves as a functional read-out for many receptors and channels.)

Turning to `N[C@@H]1CN(c2nc3cc(F)c(F)cc3n2Cc2ccc(F)cn2)CC[C@@H]1F` [Example 304, (3R,4S)-1-(5,6-difluoro-1-((5-fluoropyridin-2-yl)methyl)-1H-benzo[d]imidazol-2-yl)-4-fluoropiperidin-3-amine], the IC50 was found to be 52.4 nM.

In the case of `N[C@@H]1CN(c2nc3ccc(C(F)(F)F)cc3n2Cc2ncc(F)cn2)CC[C@@H]1F` [Example 305, (3R,4S)-4-fluoro-1-(1-((5-fluoropyrimidin-2-yl)methyl)-6-(trifluoromethyl)-1H-benzo[d]imidazol-2-yl)piperidin-3-amine], the IC50 turned out to be 0.288 nM.

For `N[C@@H]1CN(c2nc3cc(C(F)(F)F)ccc3n2Cc2ncc(F)cn2)CC[C@@H]1F` [Example 306, (3R,4S)-4-fluoro-1-(1-((5-fluoropyrimidin-2-yl)methyl)-5-(trifluoromethyl)-1H-benzo[d]imidazol-2-yl)piperidin-3-amine], the IC50 worked out at 1430 nM.

Turning to `N[C@@H]1CN(c2nc3cc(F)c(F)cc3n2Cc2ccc(F)cn2)CCC1(F)F` [Example 307, (R)-1-(5,6-difluoro-1-((5-fluoropyridin-2-yl)methyl)-1H-benzo[d]imidazol-2-yl)-4,4-difluoropiperidin-3-amine], the IC50 stood at 376 nM.

Take `N[C@@H]1CN(c2nc3ccc(C(F)(F)F)cc3n2CC(=O)N2CCC2)CC[C@@H]1F` [Example 308, 2-(2-((3R,4S)-3-amino-4-fluoropiperidin-1-yl)-6-(trifluoromethyl)-1H-benzo[d]imidazol-1-yl)-1-(azetidin-1-yl)ethan-1-one]: the IC50 was over 3750 nM.

With `N[C@@H]1CN(c2nc3cc(C(F)(F)F)ccc3n2CC(=O)N2CCC2)CC[C@@H]1F` [Example 309, 2-(2-((3R,4S)-3-amino-4-fluoropiperidin-1-yl)-5-(trifluoromethyl)-1H-benzo[d]imidazol-1-yl)-1-(azetidin-1-yl)ethan-1-one], the IC50 came out at 280 nM.

Turning to `CC1(C)CCCN1C(=O)Cn1c(N2CC[C@@H](F)[C@H](N)C2)nc2cc(F)c(F)cc21` [Example 310, 2-(2-((3R,4R)-3-amino-4-fluoropiperidin-1-yl)-5,6-difluoro-1H-benzo[d]imidazol-1-yl)-1-(2,2-dimethylpyrrolidin-1-yl)ethan-1-one], the IC50 is 765 nM.

Consider `N#Cc1ccc(Cn2c(N3CC[C@H](O)[C@H](N)C3)nc3ccc(F)cc32)nc1` [Example 311, 6-((2-((3R,4S)-3-amino-4-hydroxypiperidin-1-yl)-6-fluoro-1H-benzo[d]imidazol-1-yl)methyl)nicotinonitrile], for which the IC50 was found to be 217 nM.

Consider `N#Cc1ccc(Cn2c(N3CC[C@H](O)[C@H](N)C3)nc3cc(F)ccc32)nc1` [Example 312, 6-((2-((3R,4S)-3-amino-4-hydroxypiperidin-1-yl)-5-fluoro-1H-benzo[d]imidazol-1-yl)methyl)nicotinonitrile], for which the IC50 turned out to be 2860 nM.

On to `C[C@H](c1ccc(C#N)cc1)n1c(N2CCC[C@H](N)C2)nc2ccccc21` [Example 313, 4-((R)-1-(2-((S)-3-aminopiperidin-1-yl)-1H-benzo[d]imidazol-1-yl)ethyl)benzonitrile hydrochloride], for which the IC50 came out at 15800 nM.

`C[C@@H](c1ccc(C#N)cc1)n1c(N2CCC[C@H](N)C2)nc2ccccc21` [Example 314, 4-((S)-1-(2-((S)-3-aminopiperidin-1-yl)-1H-benzo[d]imidazol-1-yl)ethyl)benzonitrile hydrochloride]: the IC50 is over 50000 nM.

As for `N#Cc1ccc(Cn2c(N3CCC[C@H](N)C3)nc3ccccc32)c(F)c1` [Example 315, (S)-4-((2-(3-aminopiperidin-1-yl)-1H-benzo[d]imidazol-1-yl)methyl)-3-fluorobenzonitrile hydrochloride], the IC50 was over 50000 nM.

Regarding `N[C@H]1CCCN(c2nc3ccccc3n2Cc2ccc(Cl)cc2)C1` [Example 316, (S)-1-(1-(4-chlorobenzyl)-1H-benzo[d]imidazol-2-yl)piperidin-3-amine hydrochloride], the IC50 was found to be 2.04 nM.

Turning to `C[C@H](c1ccc(C#N)cc1)n1c(N2CC[C@H](F)[C@H](N)C2)nc2ccccc21` [Example 317, 4-((R)-1-(2-((3R,4S)-3-amino-4-fluoropiperidin-1-yl)-1H-benzo[d]imidazol-1-yl)ethyl)benzonitrile hydrochloride], the IC50 was 1360 nM.

In the case of `C[C@@H](c1ccc(C#N)cc1)n1c(N2CC[C@H](F)[C@H](N)C2)nc2ccccc21` [Example 318, 4-((S)-1-(2-((3R,4S)-3-amino-4-fluoropiperidin-1-yl)-1H-benzo[d]imidazol-1-yl)ethyl)benzonitrile hydrochloride], the IC50 is 37.7 nM.

For the compound `C[C@H](c1ccc(C#N)cc1)n1c(N2CC[C@@H](F)[C@H](N)C2)nc2ccccc21` [Example 319, 4-((R)-1-(2-((3R,4R)-3-amino-4-fluoropiperidin-1-yl)-1H-benzo[d]imidazol-1-yl)ethyl)benzonitrile hydrochloride], the IC50 was found to be 456 nM.

Regarding `C[C@@H](c1ccc(C#N)cc1)n1c(N2CC[C@@H](F)[C@H](N)C2)nc2ccccc21` [Example 320, 4-((S)-1-(2-((3R,4R)-3-amino-4-fluoropiperidin-1-yl)-1H-benzo[d]imidazol-1-yl)ethyl)benzonitrile hydrochloride], the IC50 came out at 12 nM.

With `N#Cc1ccc(Cn2c(N3CCC[C@H](N)C3)nc3ccccc32)c(Cl)c1` [Example 321, (S)-4-((2-(3-aminopiperidin-1-yl)-1H-benzo[d]imidazol-1-yl)methyl)-3-chlorobenzonitrile hydrochloride], the IC50 worked out at 4.07 nM.

As for `C[C@H](c1ccc(Cl)cc1Cl)n1c(N2CC[C@@H](F)[C@H](N)C2)nc2cc(F)c(F)cc21` [Example 322, (3R,4R)-1-(1-((1R)-1-(2,4-dichlorophenyl)ethyl)-5,6-difluoro-1H-benzimidazol-2-yl)-4-fluoro-3-piperidinamine], the IC50 was determined as 1450 nM.

For `C[C@@H](c1ccc(Cl)cc1Cl)n1c(N2CC[C@@H](F)[C@H](N)C2)nc2cc(F)c(F)cc21` [Example 323, (3R,4R)-1-(1-((1S)-1-(2,4-dichlorophenyl)ethyl)-5,6-difluoro-1H-benzimidazol-2-yl)-4-fluoro-3-piperidinamine], the IC50 was over 3750 nM.

Take `C[C@H](c1ccccc1Cl)n1c(N2CC[C@@H](F)[C@H](N)C2)nc2cc(F)c(F)cc21` [Example 324, (3R,4R)-1-(1-((1R)-1-(2-chlorophenyl)ethyl)-5,6-difluoro-1H-benzimidazol-2-yl)-4-fluoro-3-piperidinamine]: the IC50 was over 3750 nM.

For `C[C@@H](c1ccccc1Cl)n1c(N2CC[C@@H](F)[C@H](N)C2)nc2cc(F)c(F)cc21` [Example 325, (3R,4R)-1-(1-((1S)-1-(2-chlorophenyl)ethyl)-5,6-difluoro-1H-benzimidazol-2-yl)-4-fluoro-3-piperidinamine], the IC50 was found to be 743 nM.

As for `C[C@H](c1cccc(Cl)c1)n1c(N2CC[C@@H](F)[C@H](N)C2)nc2cc(F)c(F)cc21` [Example 326, (3R,4R)-1-(1-((1R)-1-(3-chlorophenyl)ethyl)-5,6-difluoro-1H-benzimidazol-2-yl)-4-fluoro-3-piperidinamine], the IC50 stood at 2930 nM.

In the case of `C[C@@H](c1cccc(Cl)c1)n1c(N2CC[C@@H](F)[C@H](N)C2)nc2cc(F)c(F)cc21` [Example 327, (3R,4R)-1-(1-((1S)-1-(3-chlorophenyl)ethyl)-5,6-difluoro-1H-benzimidazol-2-yl)-4-fluoro-3-piperidinamine], the IC50 was found to be 1370 nM.

Consider `C[C@H](c1cc(Cl)ccc1Cl)n1c(N2CC[C@@H](F)[C@H](N)C2)nc2cc(F)c(F)cc21` [Example 328, (3R,4R)-1-(1-((1R)-1-(2,5-dichlorophenyl)ethyl)-5,6-difluoro-1H-benzimidazol-2-yl)-4-fluoro-3-piperidinamine], for which the IC50 was over 3750 nM.

With `C[C@@H](c1cc(Cl)ccc1Cl)n1c(N2CC[C@@H](F)[C@H](N)C2)nc2cc(F)c(F)cc21` [Example 329, (3R,4R)-1-(1-((1S)-1-(2,5-dichlorophenyl)ethyl)-5,6-difluoro-1H-benzimidazol-2-yl)-4-fluoro-3-piperidinamine], the IC50 is over 3750 nM.

With `C[C@H](c1ccc(F)cc1F)n1c(N2CC[C@@H](F)[C@H](N)C2)nc2cc(F)c(F)cc21` [Example 330, (3R,4R)-1-(1-((1R)-1-(2,4-difluorophenyl)ethyl)-5,6-difluoro-1H-benzimidazol-2-yl)-4-fluoro-3-piperidinamine], the IC50 came to 669 nM.
